From patent US20120015090A1, “READILY WATER-SOLUBLE MYRICITRIN COMPOSITION” (SAN-EI GEN F.F.I., INC., priority 2009, published 2012)

Experiments:
[1] = Flavor deterioration suppressing effect, sensory evaluation of drinks after light or heat stress test (Experiment Example 6); set-up: key: 1 = no-addition blank drink, 5 = drink before the test; conditions: added 0.1% (γ-CD 0.01%)
Experimental: Various drinks mixed with the MY or MY composition were subjected to a light or heat stress test (accelerated test) to evaluate the flavor deterioration suppressing effect of the MY or MY composition.
Specifically, eight drinks were prepared in the formulations 1 to 8 below. Then, a 3% MY preparation (product name: SanMelin**Y-AF*), a MY/γ-CD inclusion product preparation (MY: γ-CD=1:1.2) (containing 3% MY) prepared in Example 2, a MY/γ-CD inclusion product preparation (MY: γ-CD=1:1.2) (containing 6% MY) prepared in Example 3, and γ-CD (Wacker Chemical) were added thereto in the final concentrations shown in FIG. 10.
The drinks prepared as above were tested under the severity conditions presented in Table 10, and changes in drink flavor after the test were examined by six panelists in a sensory evaluation. Evaluations were made according to the following criteria on a scale of 1 (a drink with no addition (blank)) to 5 (each drink before the test).
Table 10 presents mean values of the scored points evaluated by the six panelists.

[2] = Fading suppressing effect, UV Fade Meter irradiation (Experiment Example 5); conditions: pH 3.1, final MY 0.003%, γ-CD 0.01%, EMIQ […]
Experimental: (§1) Specifically, a colorant-containing acidic drink of the formulation below was prepared. Then, a 3% MY preparation (product name: SanMelin**Y-AF*) and a MY/γ-CD inclusion product (MY: γ-CD=1:1.2) (containing 3% myricitrin) prepared in Example 2 were added to the drink to a final MY concentration of 0.003% or to a final γ-CD (Wacker Chemical) concentration of 0.01%.
(§2) The drinks were irradiated with a UV Fade Meter (UV Long-Life Fade Meter FAL-3, Suga Test Instruments Co., Ltd.) or a fluorescent light (BIOTRON LH 300, NK System) for the durations presented in Tables 6 and 7. Absorbance was measured before and after the irradiation, and the percentage of remaining color (%) after the irradiation was calculated. Further, as a control test, a colorant-containing acidic drink was irradiated with the UV Fade Meter or fluorescent light as above without adding anything (no addition), and the percentage of remaining color (%) after the irradiation was calculated.

[3] = Fading suppressing effect, fluorescent light irradiation (Experiment Example 5); conditions: pH 3.1, final MY 0.003%, γ-CD 0.01%, EMIQ […]
Experimental: as §1, §2

OC[C@H]1O[C@@H]2O[C@H]3[C@H](O)[C@@H](O)[C@@H](O[C@H]4[C@H](O)[C@@H](O)[C@@H](O[C@H]5[C@H](O)[C@@H](O)[C@@H](O[C@H]6[C@H](O)[C@@H](O)[C@@H](O[C@H]7[C@H](O)[C@@H](O)[C@@H](O[C@H]8[C@H](O)[C@@H](O)[C@@H](O[C@H]9[C@H](O)[C@@H](O)[C@@H](O[C@H]1[C@H](O)[C@H]2O)O[C@@H]9CO)O[C@@H]8CO)O[C@@H]7CO)O[C@@H]6CO)O[C@@H]5CO)O[C@@H]4CO)O[C@@H]3CO [γ-CD, γ-cyclodextrin]
flavor change score, mean of six panelists ([1]; Coffee, Fluorescent light (20000 lx, 16 hr, 15° C.), scale 1 to 5): 2.4 | flavor change score, mean of six panelists ([1]; Grape drink, Fluorescent light (20000 lx, 15 hr, 15° C.), scale 1 (blank) to 5 (before test)): 1.6 | flavor change score, mean of six panelists ([1]; Grapefruit drink (20% fruit juice), Fade Meter ([…]), scale 1 to 5): 2.2 | flavor change score, mean of six panelists ([1]; Grapefruit drink (20% fruit juice), Fluorescent light (20000 lx, 21 hr, 10° C.), scale 1 to 5): 2.0 | flavor change score, mean of six panelists ([1]; Grapefruit drink (20% fruit juice), Heat (55° C., 64 hr), scale 1 to 5): 2.8 | flavor change score, mean of six panelists ([1]; Grapefruit drink (100% fruit juice), Fluorescent light (20000 lx, 18 hr, 15° C.), scale 1 to 5): 2.1 | flavor change score, mean of six panelists ([1]; Lemon drink, Fluorescent light (20000 lx, 21 hr, 10° C.), scale 1 to 5): 2.2 | flavor change score, mean of six panelists ([1]; Milk tea, Fluorescent light (20000 lx, 18 hr, 15° C.), scale 1 to 5): 2.3 | flavor change score, mean of six panelists ([1]; Orange drink (20% fruit juice), Fluorescent light (20000 lx, 18 hr, 15° C.), scale 1 to 5): 2.3 | flavor change score, mean of six panelists ([1]; Sour milk beverage, Fluorescent light (20000 lx, 18 hr, 15° C.), scale 1 to 5): 2.7 | percentage of remaining color (%) ([2]; Cochineal colorant 0.05%, UV Fade Meter 6 H): 64.3% | percentage of remaining color (%) ([2]; Elderberry colorant 0.05%, UV Fade Meter 2 H): 68.5% | percentage of remaining color (%) ([2]; Gardenia blue colorant 0.05%, UV Fade Meter 19 H): 68.6% | percentage of remaining color (%) ([2]; Grape juice colorant 0.1%, UV Fade Meter 2 H): 75.0% | percentage of remaining color (%) ([2]; Monascus colorant, UV Fade Meter 3 H): 30.2% | percentage of remaining color (%) ([2]; Paprika colorant 0.05%, UV Fade Meter 3 H): 50.3% | percentage of remaining color (%) ([2]; Purple corn colorant 0.05%, UV Fade Meter 4 H): 72.8% | percentage of remaining color (%) ([2]; Purple sweet potato colorant 0.05%, UV Fade Meter 7 H): 46.5% | percentage of remaining color (%) ([2]; Red cabbage colorant 0.05%, UV Fade Meter 10 H): 53.9% | percentage of remaining color (%) ([2]; Safflower yellow colorant 0.05%, UV Fade Meter 4 H): 48.6% | percentage of remaining color (%) ([2]; β-carotene 0.05%, UV Fade Meter 17 H): 68.5% | percentage of remaining color (%) ([3]; Cochineal colorant 0.05%, fluorescent light 1 D): 64.2% | percentage of remaining color (%) ([3]; Elderberry colorant 0.05%, fluorescent light 6 D): 63.8% | percentage of remaining color (%) ([3]; Gardenia blue colorant 0.05%, fluorescent light (time not given)): 58.4% | percentage of remaining color (%) ([3]; Monascus colorant, fluorescent light 4 D): 38.7% | percentage of remaining color (%) ([3]; Paprika colorant 0.05%, fluorescent light 6 D): 71.2% | percentage of remaining color (%) ([3]; Purple corn colorant 0.05%, fluorescent light 2 D): 65.5% | percentage of remaining color (%) ([3]; Purple sweet potato colorant 0.05%, fluorescent light 6 D): 80.4% | percentage of remaining color (%) ([3]; Red cabbage colorant 0.05%, fluorescent light 4 D): 62.8% | percentage of remaining color (%) ([3]; Safflower yellow colorant 0.05%, fluorescent light 6 D): 68.1% | percentage of remaining color (%) ([3]; β-carotene 0.05%, fluorescent light 1 D): 67.4%
